Reference: patent publication US9642832B2, “Use of atractylenolide compound or its derivatives and a medicament for inhibiting platelet aggregation” (No. 3 People Hospital Affiliated to Shanghai Jiaotong …, priority 2014, dated 2017)

Experiments:
Type in all cases: cell-based, human
platelets [1] = experiment: Platelet aggregation test, thrombin as stimulant; conditions: for in vitro platelet aggregation inhibition, comparative experiment: under the stimulus of thrombin; for platelet aggregation inhibition: human platelets 3×10^8/mL, compound 0.1, 0.5, 1, 5, 10 μM, incubated 3 mins, thrombin stimulant
platelets [2] = experiment: Platelet spreading test on fibrin, phalloidin staining; conditions: platelets 3×10^7/mL, compound 1, 5, 10 μM, incubated 3 mins, spread on fibrin (40 μg/mL), 100× oil immersion lens
Procedure: (1) Preparation of platelets: use the same method as abovementioned to prepare platelets counting 3×10^7/mL.
The compound is incubated in platelets for 3 mins. The platelets treated by the drug are spread on fibrin (40 μg/mL). After Staining by the fluorescent antibody phalloidin, the spreading of platelets are observed under the 100× oil immersion lens.
(2) Concentration gradient of compound atractylenolide III; final concentrations of the compound in 100 uL platelets are respectively 1 μM, 5 μM, 10 μM. The compound is incubated in platelets for 3 mins. The platelets treated by the drug are spread on fibrin (40 μg/mL). After staining by the fluorescent antibody phalloidin, the spreading of platelets is observed under the 100× oil immersion lens.

Akt molecule = experiment: Western blotting test on phosphorylation levels of related molecules in platelets; conditions: platelet protein samples collected after the aggregation test
Text: After acquiring the aggregation curve in Example 1, platelet protein samples (2×SDS loading protein lysis buffer) are collected, and tested by Western blotting for phosphorylation levels of related molecules.
Testing the phosphorylation levels of related molecules in the signal pathway using Western blotting, when the PI3K/Akt signal pathway is activated, the Akt molecule is activated via phosphorylation, which leads to the activation of downstream enzymes, kinases, transcription factors (e.g. GSK3), etc.
After acquiring the aggregation curve in Example 2, platelet protein samples (2×SDS loading protein lysis buffer) are collected, and tested by Western blotting for phosphorylation levels of related molecules.

Compound | in vitro platelet aggregation inhibition, comparative experiment (platelets [1]; 150 μM) | effect on platelet spreading (platelets [2]) | phosphorylation level of the Akt molecule (Akt molecule) | in vitro platelet aggregation inhibition, comparative experiment (platelets [1]; 10 μM) | platelet aggregation inhibition (platelets [1])
CC(=O)Oc1ccccc1C(=O)O [acetylsalicylic acid, reference compound] | does not show the inhibitory effect | – | – | – | –
C=C1CCC[C@]2(C)C[C@]3(O)OC(=O)C(C)=C3C[C@@H]12 [atractylenolide III] | – | has an influence on platelet spreading | affects the phosphorylation level of the Akt molecule | has the effect of inhibiting platelet aggregation | has an effect of inhibiting platelet aggregation
atractylenolide II | – | has an influence on platelet spreading | – | has the effect of inhibiting platelet aggregation | has an effect of inhibiting platelet aggregation
